Literature values as cited in paper PMC5306496 (British Journal of Clinical Pharmacology, 2016).
Where two headings read alike, the source gives them in different places.

How the values were obtained:
[1] = CVVHDF
[2] = not given; remark: listed apart in the source
[3] = not given; remark: listed apart in the source
[4] = patients with SAB/RIE and CrCl > 30 ml min^−1, 6 mg kg^−1 once daily

clearance by CRRT as share of the total drug clearance: 40–50%
PK linearity (once‐daily doses of 6–12 mg kg^−1): linear PK profile
amount of drug cleared by the kidneys (patients with normal renal function): 34–54%
C max ([1]; 4 mg kg^−1/day, n = 4, range): 24.7 to 69.7 µg/mL
C min ([1]; 4 mg kg^−1/day, n = 4, range): 2.7 to 11.9 µg/mL
C max ([1]; 5 mg kg^−1/day, n = 2, range): 34.7 to 35.7 µg/mL
C min ([1]; 5 mg kg^−1/day, n = 2, range): 3 to 3.7 µg/mL
C max ([1]; 6 mg kg^−1/day, n = 2, range): 20.5 to 61.7 µg/mL
C min ([1]; 6 mg kg^−1/day, n = 2, range): 1.5 to 15.9 µg/mL
efficacy exposure reference AUC0–24h [2, 4]: 465 to 761 µg·h/mL
efficacy exposure reference C max [2, 4]: 66 to 112 µg/mL
CL ([3]; base model without CRRT patients, not-on-dialysis): 11.4 mL/h/kg
CL ([3]; base model without CRRT patients, not-on-dialysis, at 70 kg): 0.80 L/h
CL ([3]; base model, CAPD): 2.98 mL/h/kg
CL ([3]; base model, HD): 3.43 mL/h/kg
Substance: daptomycin
C min that may be associated with elevated creatine phosphokinase (CPK) ([2]; additional safety threshold): > 24.3 µg/mL
safety threshold C max ([2]; healthy volunteers with normal renal function, 12 mg kg^−1 Q24 h): 197 µg/mL
